Results: US11339169B2, “P2X3 and/or P2X2/3 compounds and methods” (Asana BioSciences, LLC, priority 2016, dated 2022)

How the values were obtained:
hP2X3 = target: T1, hP2X3 (Homo sapiens, UniProt P56373); assay: FLIPR intracellular calcium assay, hP2X3; format: cell-based; details: human P2X3-HEK cells, agonist at EC75
T1 construct: host or cells: HEK (hP2X3-HEK)
T1 sequence (P56373 1-397): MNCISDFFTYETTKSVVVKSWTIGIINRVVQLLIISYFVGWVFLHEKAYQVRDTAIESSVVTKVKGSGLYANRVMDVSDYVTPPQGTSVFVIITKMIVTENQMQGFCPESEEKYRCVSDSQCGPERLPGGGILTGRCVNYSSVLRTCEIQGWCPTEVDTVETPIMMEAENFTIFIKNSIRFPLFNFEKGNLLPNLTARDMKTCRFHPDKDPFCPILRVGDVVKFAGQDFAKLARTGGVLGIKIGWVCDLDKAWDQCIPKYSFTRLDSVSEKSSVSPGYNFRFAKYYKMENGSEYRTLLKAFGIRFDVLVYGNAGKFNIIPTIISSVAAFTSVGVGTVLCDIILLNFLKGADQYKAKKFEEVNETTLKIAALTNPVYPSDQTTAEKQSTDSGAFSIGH
Source text: (§1) The FLIPR® assay utilizes cells which express human or rat P2X3 or P2X2/3 receptors. Recombinant cells expressing hP2X3 (Cat #6188) and hP2X2/3 (Cat #6179) were procured from Chantest Corp. Rat P2X2 (NCBI Accession No: U14414) was amplified by PCR from PC12 cDNA (a rat adrenal medulla cell line). The PCR product obtained containing the protein coding sequence of rat P2X2 was cloned into EcoRV-digested and dephosphorylated vector plRES-puro3 within the multiple cloning site (MCS). See, FIG. 1A.
(§2) (i) Intracellular Calcium Assay Protocol for Screening Compounds
(§3) Cryo-vial containing 6×10^6 cells (human P2X3-HEK/human P2X2/3-TRex293/rat P2X2/3-TRex293/rat P2X3 TRex-CHO) was thawed in a 37° C. water bath. Cells were suspended in 20 mL of respective cell plating media (See annexure for composition) in a 50 mL centrifuge tube. The cell viability was checked with the help of Trypan Blue dye. Upon washing, cells were plated in a black 384-well clear bottomed, sterile poly-D-lysine coated plate such that, each well contained 10,000 cells (15,000/well for hP2X3) in 30 μL cell plating media. The plate was incubated in a 5% CO2 incubator at 37° C. for 24 h.
(§4) The next day, prior to the assay, the cell plating media was removed from each well by decanting and gentle tapping. Thirty μL of FLIPR Calcium 4 dye solution was added to each well. The plate was incubated at 37° C. for 45 min (60 min for hP2X3). The plate was next equilibrated at room temperature for 15 minutes before placing it in a 384 well FLIPR for the assay.
(§5) Compounds were dissolved in DMSO and serially diluted following 11 point half log (3.16 fold) dilution with a starting concentration of 2 mM. Dilutions were mixed with assay buffer just before performing the assay.
(§6) Compounds were added to the respective wells of the assay-ready cell plate with the help of the FLIPR and fluorescence readings were captured for 5 min to observe any possible agonistic property of the compounds. The plate was then incubated at room temperature for 15 min. The cells were stimulated with respective agonist EC75 concentration and the fluorescence readings were captured for another 5 min by FLIPR. The difference in fluorescence readings in presence of the compounds were compared with that of the control wells (wells having no compound) to calculate the inhibitory potency of the compounds. The IC50 values of the compounds were determined using the Graph pad Prism software.
(§7) (ii) Cell Plating Media for hP2X3-HEK and hP2X2/3-TRex293 Cells • DMEM/F12 (1:1) HAM media (Invitrogen; Cat #11039) • 1×NEAA (Invitrogen; Cat #11140) • 25 mM HEPES (Invitrogen; Cat #15630) • 1 mM sodium pyruvate (Invitrogen; Cat #11360) • 10% tetracycline negative FBS (PAA; Cat #A15-209) • 1 μg/mL doxycycline (Clontech; Cat #63131) [for hP2X2/3-TRex293 cells only]
(§8) (v) Assay Buffer Composition • HBSS (Invitrogen Cat #14025) • 20 mM HEPES (Invitrogen Cat #15630) • 0.01% F127 (Sigma Cat #P2443) • 1.8 mM CaCl2 (Sigma Cat #C5080) • pH adjusted to 7.4
(§9) (vi) Dye Solution Composition • 1× FLIPR Calcium 4 dye in assay buffer (Molecular devices Cat #R8141) • 1.8 mM Probenecid (Sigma Cat #P8761) • pH adjusted to 7.4

hP2X2/3 = target: T2, hP2X2/3 (Homo sapiens, UniProt P56373+Q9UBL9); assay: FLIPR intracellular calcium assay, hP2X2/3; format: cell-based; details: human P2X2/3-TRex293 cells, agonist at EC75
T2 construct: host or cells: TRex293 (hP2X2/3-TRex293), doxycycline-induced
T2 sequence (P56373 1-397): T1 sequence (P56373 1-397)
T2 sequence (Q9UBL9 1-471): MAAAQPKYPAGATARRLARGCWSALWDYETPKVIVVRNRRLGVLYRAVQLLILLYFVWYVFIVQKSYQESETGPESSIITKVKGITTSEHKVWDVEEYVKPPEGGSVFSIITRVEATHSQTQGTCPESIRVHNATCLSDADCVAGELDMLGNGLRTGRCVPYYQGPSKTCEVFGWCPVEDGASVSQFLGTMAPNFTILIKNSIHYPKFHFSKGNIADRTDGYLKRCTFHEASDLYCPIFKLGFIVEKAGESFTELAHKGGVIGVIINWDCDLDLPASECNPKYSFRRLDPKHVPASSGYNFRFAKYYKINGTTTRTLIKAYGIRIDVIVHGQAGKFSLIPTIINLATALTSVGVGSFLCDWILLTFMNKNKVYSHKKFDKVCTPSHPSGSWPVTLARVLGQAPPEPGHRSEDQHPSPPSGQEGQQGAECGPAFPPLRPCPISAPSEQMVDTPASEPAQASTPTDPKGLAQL
Source text: as §1, §2, §3, §4, §5, §6, §7, §8, §9

| IC50 (hP2X3) | IC50 (hP2X2/3) | Compound |
| --- | --- | --- |
| 100 to 1000 nM | – | 4-{1-sec-Butyl-7-[((R)-cyclopropyl-quinolin-3-yl-methyl)-amino]-1H-pyrazolo[4,3-d]pyrimidin-5-yl}-piperazine-1-sulfonic Acid Amide [Example 109] |
| 100 to 1000 nM | – | CCC(C)n1ncc2nc(-n3cnnn3)nc(N[C@@H](c3cnc4ccccc4c3)C3CC3)c21 (single isomer, unassigned) [Example 78] |
| 100 to 1000 nM | 1000 to 10000 nM | CCC(C)n1ncc2nc(-n3cnnn3)nc(N[C@@H](c3cnc4ccccc4c3)C3CC3)c21 (single isomer, unassigned) [Example 79] |
| 1 to 100 nM | > 10000 nM | CC(=O)N1CCN(c2nc(N[C@H](C)c3cnc4ccccc4c3)c3nn(C(C)C)cc3n2)CC1 [Example 1, 1-{4-[2-Isopropyl-7-((R)-1-quinolin-3-yl-ethylamino)-2H-pyrazolo[4,3-d]pyrimidin-5-yl]-piperazin-1-yl}-ethanone] |
| 100 to 1000 nM | – | CC(=O)N1CCN(c2nc(NC(C)c3cnc4ccccc4c3)c3nn(C(C)C)cc3n2)CC1 (centres unmarked) [Example 2] |
| 100 to 1000 nM | 1000 to 10000 nM | CC(=O)N1CCN(c2nc(NC(C)(C)Cc3ccc(Cl)cc3)c3nn(C(C)C)cc3n2)CC1 [Example 3] |
| 1 to 100 nM | > 10000 nM | CCC(C)n1cc2nc(N3CCN(C(C)=O)CC3)nc(NC(C)c3cnc4ccccc4c3)c2n1 (centres unmarked) [Example 4] |
| 1 to 100 nM | > 10000 nM | CCC(C)n1cc2nc(N3CCN(C(C)=O)CC3)nc(N[C@H](C)c3cnc4ccccc4c3)c2n1 (some centres unmarked) [Example 5] |
| 100 to 1000 nM | 1000 to 10000 nM | CCC(C)n1cc2nc(N3CCN(C(C)=O)CC3)nc(NC(C)(C)Cc3ccc(Cl)cc3)c2n1 (centres unmarked) [Example 6] |
| 100 to 1000 nM | > 10000 nM | CC(=O)N1CCN(c2nc(N[C@H](C)c3cnc4ccccc4c3)c3nn(CC(C)C)cc3n2)CC1 [Example 7] |
| 1 to 100 nM | – | CCC(CC)n1cc2nc(N3CCN(C(C)=O)CC3)nc(N[C@H](C)c3cnc4ccccc4c3)c2n1 [Example 8] |
| 100 to 1000 nM | – | CC(=O)N1CCN(c2nc(N[C@H](C)c3cnc4ccccc4c3)c3nn(-c4ccccc4)cc3n2)CC1 [Example 9, 1-{4-[2-Phenyl-7-((R)-1-quinolin-3-yl-ethylamino)-2H-pyrazolo[4,3-d]pyrimidin-5-yl]-piperazin-1-yl} ethanone] |
| 1 to 100 nM | 1000 to 10000 nM | CC(=O)N1CCN(c2nc(NC(C)c3cnc4ccccc4c3)c3c(cnn3C(C)C)n2)CC1 (centres unmarked) [Example 11] |
| 1 to 100 nM | 1000 to 10000 nM | CC(=O)N1CCN(c2nc(N[C@H](C)c3cnc4ccccc4c3)c3c(cnn3C(C)C)n2)CC1 [Example 12] |
| 1 to 100 nM | 1000 to 10000 nM | CC(=O)N1CCN(c2nc(NC(C)(C)Cc3ccc(Cl)cc3)c3c(cnn3C(C)C)n2)CC1 [Example 13] |
| 100 to 1000 nM | > 10000 nM | CC(=O)N1CCN(c2nc(NCc3cnc4ccccc4c3)c3c(cnn3C(C)C)n2)CC1 [Example 14] |
| 1 to 100 nM | 1000 to 10000 nM | CC(C)n1ncc2nc(N3CCN(C)C(=O)C3)nc(N[C@H](C)c3cnc4ccccc4c3)c21 [Example 15] |
| 1 to 100 nM | 1000 to 10000 nM | CC(=O)N1CCN(c2nc(N[C@H](C)c3cnc4ccccc4c3)c3c(cnn3CC(C)C)n2)CC1 [Example 16] |
| 100 to 1000 nM | – | CC(=O)N1CCN(c2nc(N[C@@H](C)c3cnc4ccccc4c3)c3c(cnn3C(C)C)n2)CC1 [Example 17] |
| 100 to 1000 nM | 1000 to 10000 nM | CCC(C)n1ncc2nc(N3CCN(C(C)=O)CC3)nc(N[C@@H](C)c3cnc4ccccc4c3)c21 (some centres unmarked) [Example 18] |

| IC50 (hP2X3) | IC50 (hP2X2/3) | Compound |
| --- | --- | --- |
| 100 to 1000 nM | – | CCC(C)n1ncc2nc(N3CCN(C)C(=O)C3)nc(N[C@H](C)c3cnc4ccccc4c3)c21 (some centres unmarked) [Example 20] |
| 1 to 100 nM | 1000 to 10000 nM | CC[C@@H](C)n1ncc2nc(N3CCN(C(C)=O)CC3)nc(N[C@H](C)c3cnc4ccccc4c3)c21 [Example 21] |
| 1 to 100 nM | 1 to 100 nM | CCC(CC)n1ncc2nc(N3CCN(C(C)=O)CC3)nc(N[C@H](C)c3cnc4ccccc4c3)c21 [Example 22] |
| 100 to 1000 nM | – | CC(=O)N1CCN(c2nc(N[C@H](C)c3cnc4ccccc4c3)c3c(cnn3CC3CCOCC3)n2)CC1 [Example 26] |
| 1 to 100 nM | – | CC(=O)N1CCN(c2nc(N[C@H](C)c3cnc4ccccc4c3)c3c(cnn3C3CCOCC3)n2)CC1 [Example 27] |
| 100 to 1000 nM | – | CCCCCCn1ncc2nc(N3CCN(C(C)=O)CC3)nc(N[C@H](C)c3cnc4ccccc4c3)c21 [Example 28] |
| 100 to 1000 nM | – | CCC(CC)n1ncc2nc(N3CCN(C(C)=O)CC3)nc(N[C@@H](CC)c3cnc4ccccc4c3)c21 [Example 36] |
| 1 to 100 nM | – | CCC(=O)N1CCN(c2nc(N[C@H](C)c3cnc4ccccc4c3)c3c(cnn3C(C)C)n2)CC1 [Example 37] |
| 100 to 1000 nM | – | CC(C)n1ncc2nc(N3CCNC(=O)C3)nc(N[C@H](C)c3cnc4ccccc4c3)c21 [Example 41] |
| 100 to 1000 nM | – | CCn1ncc2nc(N3CCN(C(C)=O)CC3)nc(N[C@H](C)c3cnc4ccccc4c3)c21 [Example 50] |
| 100 to 1000 nM | – | CCC(C)n1ncc2nc(N3CCN(C(C)=O)CC3)nc(NC(C)c3ccc(-c4ccccn4)cc3)c21 (centres unmarked) [Example 53] |
| 100 to 1000 nM | – | CCC(CC)n1ncc2nc(N3CCN(C(C)=O)CC3)nc(N[C@@H](C)c3cnc4ccc(F)cc4c3)c21 [Example 54] |
| 100 to 1000 nM | – | CCC(CC)n1ncc2nc(N3CCN(C(C)=O)CC3)nc(NC(c3ccc(OCC4CC4)nc3)C3CC3)c21 (centres unmarked) [Example 63] |
| 100 to 1000 nM | – | CC[C@H](C)n1ncc2nc(N3CCN(C(N)=O)CC3)nc(NC(c3ccc4nccn4c3)C3CC3)c21 (some centres unmarked) [Example 67] |
| 100 to 1000 nM | – | CC[C@H](C)n1ncc2nc(N3CCN(C(N)=O)CC3)nc(NC(C)c3n[nH]c4ccccc34)c21 (some centres unmarked) [Example 71] |
| 100 to 1000 nM | – | CC[C@H](C)n1ncc2nc(N3CCN(C(N)=O)CC3)nc(NC(C)c3cc4ccccn4n3)c21 (some centres unmarked) [Example 73] |
| 100 to 1000 nM | – | CC(=O)N1CCN(c2nc(NC(C)c3cnc4ccccc4c3)c3nn(C(C)C)c(C(N)=O)c3n2)CC1 (centres unmarked) [Example 95] |
| 1 to 100 nM | – | CC(=O)N1CCN(c2nc(NC(C)(C)Cc3ccc(Cl)cc3)c3nn(C(C)C)c(Br)c3n2)CC1 [Example 97] |
| 1 to 100 nM | – | CC(=O)N1CCN(c2nc(N[C@H](C)c3cnc4ccccc4c3)c3nn(C(C)C)c(C4CC4)c3n2)CC1 [Example 107] |
| 100 to 1000 nM | – | CCC(C)n1ncc2nc(-c3cnn(CC(N)=O)c3)nc(N[C@@H](c3cnc4ccccc4c3)C3CC3)c21 (some centres unmarked) [Example 120] |
